Legend:
ceramide kinase mRNA = test: RT-PCR of ceramide kinase mRNA in A549 cells; assay type: cell-based, human; details: 26 hours after transfection, normalized to 18s ribosomal RNA
Procedure: FIGS. 6A-6B. Ceramide kinase RNAi downregulates endogenous ceramide kinase activity and mRNA levels. FIG. 6A. The effect of ceramide kinase RNAi on endogenous ceramide kinase activity. A549 cells (5×10^4) were transfected with the 21-nucleotide duplexes for ceramide kinase or scrambled control sequence. Following the 4 hour transfection, cells incubated in normal growth media for 26 hours. Cells were then washed, lysed in assay buffer, and assayed for ceramide kinase activity. Data are presented as % control ceramide kinase activity with control RNAi (Control) or ceramide kinase RNAi (CerK RNAi). Data are representative of three separate determinations on two separate occasions. FIG. 6B. The effect of ceramide kinase RNAi on the mRNA levels of ceramide kinase. Following the same procedure as outlined in FIG. 6A, total RNA was extracted and analyzed via logarithmic reverse-transcriptase polymerase chain reaction for human ceramide kinase and 18s ribosomal RNA. Data are presented as percent control after the densitometry of ceramide kinase mRNA was normalized to 18s ribosomal RNA levels with control RNAi (Control) or ceramide kinase RNAi (CerK RNAi). Data are representative of three separate determinations on two separate occasions. […]

sphingosine kinase-1 = test: Immunoreactive levels of sphingosine kinase-1 after ceramide kinase RNAi; assay type: cell-based; details: cells transfected with RNAi targeted to ceramide kinase
A549 cells = test: Quantification of prostaglandin E2 synthesis in A549 cells (EIA); assay type: cell-based; details: compared with inhibition of AA release
Procedure: Cell Culture: A549 lung adenocarcinoma cells (epithelial-derived) were grown in low glucose DMEM (Invitrogen) supplemented with L-glutamine, 10% (v/v) fetal bovine serum (Invitrogen), 200 U/ml of penicillin G sodium, and 200 μg/ml of streptomycin sulfate. Cells were maintained under 80% confluency and standard incubator conditions (humidified atmosphere, 95% air, 5% CO2, 370 C). For treatment, cells were incubated for 2 hours in low glucose DMEM (Invitrogen) supplemented with L-glutamine, 2% (v/v) fetal bovine serum (Invitrogen), 200 U/ml of penicillin G sodium, and 200 μg/ml of streptomycin sulfate prior to the addition of agonist.
Quantification of prostaglandin E2 and thromboxane B2 synthesis: For measurement of PGE2 and TXB2 levels, aliquots of media were taken at indicated time points and assayed according to manufacturer's instructions using the prostaglandin E2 and thromboxane B2 monoclonal EIA Kit from Cayman Chemical. Briefly, media containing PGE2 or TXB2 competes with PGE2 or TXB2 acetylcholinesterase conjugate for a limited amount of monoclonal antibody. The antibody-PGE2 or -TXB2 conjugate binds to a goat-anti-mouse antibody previously attached to the 96-well plate. The plate is washed to remove unbound reagents and then the substrate for acetylcholinesterase is provided. […] Results were controlled for equivalent number of cells quantified by MTT assay. […]

For “ceramide kinase RNAi: 21-nucleotide duplex, human ceramide kinase RNAi starting 142 nucleotides from start codon (SEQ ID NO: 3 and 4) (chain 1 UGCCUGCUCUGUGCCUGUATT; chain 2 UACAGGCACAGAGCAGGCATT; chemistry not given here)”, the “decrease of ceramide kinase mRNA levels” value (ceramide kinase mRNA) was 73%, the “immunoreactive levels of sphingosine kinase-1” value (sphingosine kinase-1) was “no decrease” and the “inhibition of PGE2 synthesis in response to IL-1β and A23187” value (A549 cells) was “to the same extent”.

From US20060030537A1, “Ceramide kinase and uses thereof” (priority 2004, published 2006)
